Test results: ChEMBL document CHEMBL1148139, “Antiangiogenic activity of synthetic dihydrobenzofuran lignans” (J Nat Prod, 2002)
Calls of active or inactive are those of the source. No cut-off for these calls is given here.

Legend:
[1] = Toxicity to fertilized chicken eggs assessed as membrane irritating activity at 20 ug/pellet; set-up: species or system Gallus gallus; conditions: in vivo, other
Gallus gallus [2] = species on record: Gallus gallus; assay: Antiangiogenic activity in fertilized chicken eggs at 5 ug/pellet by CAM assay; assay type: functional; conditions: Egg
Gallus gallus [3] = species on record: Gallus gallus; assay: Antiangiogenic activity in fertilized chicken eggs at 20 ug/pellet by CAM assay; assay type: functional; conditions: Egg

COC(=O)/C=C/c1cc(O)c2c(c1)[C@@H](C(=O)OC)[C@H](c1ccc(O)c(O)c1)O2
Activity [1]: 50% | Activity (Gallus gallus [2]): Active | Activity (Gallus gallus [3]): Active
